The text below walks through data of paper PMC12907944, “Targeting RAD51-BRCA2 Interaction to Enhance Synthetic Lethality with Olaparib in Pancreatic Cancer: Development of a Novel Phenyl Furan-Quinoline-Carboxylic Acid Series” (ACS Medicinal Chemistry Letters, 2026).

Structures are written as SMILES. Values after ≈ are worked out from the molar mass of the structure shown.

Data set [1] relates to RAD51 foci formation in BxPC-3 cells. Description: RAD51 foci immunofluorescence after cisplatin. It is filed as cell-based, human.
In data set [2] the test system is homologous recombination in BxPC-3 cells. Put plainly: HR Quick Assay (HR-QA). Format: cell-based. The settings on record: Homo sapiens.
A short description of the next data set: kinetic solubility. It is filed as physicochemical. The settings on record: PBS, aqueous buffer, kinetic from dmso stock.
The test system of another data set is BxPC-3 cells. Description: cell viability (CellTiter-Glo), combination with olaparib, Interaction Index. It is filed as cell-based, human. The settings on record: for Combination studies with olaparib: combination effect: BxPC-3 cells. For orientation: Cellular ATP, detected with luciferase, serves as a proxy for viable cell number.
The test system of data set [3] is homologous recombination in HEK-293 cells. Put plainly: m-Clover Lamin A assay (mCl-HR). Format: cell-based, human.
The test system of a further data set is γ-H2AX in BxPC-3 cells. Description: γ-H2AX immunofluorescence. Format: cell-based, human. The settings on record: BxPC-3, 72 h, 19 + ola combination.
The subject of data set [4] is normal pancreatic epithelial H-6037 cells. Description: cell viability, combination with olaparib. Format: cell-based, human. The settings on record: 19/ola combination, 6-day.
Another data set relates to BxPC-3 3D spheroids. Put plainly: 3D spheroids cell viability (MTT) and volume. It is filed as cell-based, human. The settings on record: BxPC-3 spheroids, 60 μM compound alone.

Description for BxPC-3 3D spheroids: multiwell plates, grown for 96 h to allow spheroids formation and treated for 144 h as previously indicated.
Brightfield imaging of 3D spheroids was performed
at 0, 48, 96 and 144 h treatment timings to determine spheroid volume change.

Take `N.N.[Cl][Pt][Cl]` [CPL, cisplatin, reference compound]: in data set [1] (BxPC-3, CPL alone (50 μM cisplatin)), the RAD51-labelled nuclei came out at 56%.
The inhibition is the change of the read-out against control, counted positive when it falls. For orientation: solubility (kinetic) means the concentration staying in solution when a stock, usually in DMSO, is diluted into the medium. Consider `Cc1ccc2nc(-c3ccc(-c4ccccc4C(=O)O)o3)cc(C(=O)O)c2c1` [Compound 1], for which, in data set [2] (BXPC-3, at 100 μM), the inhibition at 100 µM is 4%. The inhibition at 50 µM in data set [2] (BXPC-3, maximum inhibition, at 50 μM) is 35%. The compound further had a kinetic solubility in “kinetic solubility” of 234 ± 9 µM (≈ 87.4 µg/mL). In the data set with BxPC-3 cells (144 h), the “Combination studies with olaparib: combination effect” value (“Combination studies with olaparib” for short) is “additive (a result ranging from 0.8 to 1.2 denotes an additive effect)”.
Take `Cc1ccc2nc(-c3ccc(-c4ccccc4)o3)cc(C(=O)O)c2c1` [Compound 4]: the inhibition at 80 µM in data set [2] (BXPC-3, maximum inhibition) was found to be 63%. Also, the “Combination studies with olaparib” value in the data set with BxPC-3 cells (144 h) was “additive (a result ranging from 0.8 to 1.2 denotes an additive effect)”.
As for `Cc1ccc2nc(-c3ccc(-c4ccccc4F)o3)cc(C(=O)O)c2c1` [Compound 8], the inhibition at 60 µM in data set [2] (BXPC-3, maximum inhibition, at 60 μM) worked out at 39%.
Take `CCc1ccc2nc(-c3ccc(-c4ccccc4)o3)cc(C(=O)O)c2c1` [Compound 16]: the inhibition at 80 µM in data set [2] (BXPC-3, maximum inhibition) came to 76%. For the same compound, in the data set with BxPC-3 cells (BxPC-3, compound alone at 40 µM), the cell viability reduction amounted to 40%. Further, in the data set on BxPC-3 cells (144 h), the “Combination studies with olaparib” value is listed as “additive (a result ranging from 0.8 to 1.2 denotes an additive effect)”.
Consider `Nc1ccc2nc(-c3ccc(-c4ccccc4)o3)cc(C(=O)O)c2c1` [Compound 17], for which the inhibition at 20 µM in data set [2] (BXPC-3, maximum inhibition) was determined as 77%. Moreover, the “Combination studies with olaparib” value in the data set on BxPC-3 cells (144 h) is “additive (a result ranging from 0.8 to 1.2 denotes an additive effect)”.
Take `O=C(O)c1cc(-c2ccc(-c3ccccc3)o2)nc2ccc(O)cc12` [Compound 18]: the inhibition at 20 µM in data set [2] (BXPC-3, maximum inhibition) was at most 60%.
As usually defined, the IC50 is the midpoint of a concentration-inhibition curve. Regarding `COc1ccc2nc(-c3ccc(-c4ccccc4)o3)cc(C(=O)O)c2c1` [Compound 19], the mClover-positive cells in data set [3] (HEK-293, 40 μM) is reported as around 4%. Further, in data set [3] (Homo sapiens, HEK293, HEK-293, 40 μM), the inhibition at 40 µM was around 74%. Further, the inhibition at 80 µM in data set [2] (BXPC-3, maximum inhibition) stood at 81%. In addition, the IC50 in data set [2] (multiple-dose HR-QA) is 21.7 ± 1.81 µM. The γ-H2AX-labelled nuclei in the data set on γ-H2AX in BxPC-3 cells was above 40%. Also, the solubility (kinetic) in “kinetic solubility” was above 250 µM. The RAD51-labelled nuclei in data set [1] (BxPC-3, 19 and CPL (50 μM cisplatin)) is 22%. For the same compound, in the data set on BxPC-3 cells (BxPC-3, Table S2), the “Combination w/ola in BxPC-3 cells” value was “Synergism”. For the same compound, in data set [4], the “effect on cell viability of normal cells” value is “no significant effect”. The “impact on spheroid volume” value with BxPC-3 3D spheroids was “no significant impact”.
On to `Cc1ccc2nc(-c3ccc(-c4ccccc4)s3)cc(C(=O)O)c2c1` [Compound 20], for which the inhibition at 20 µM in data set [2] (BXPC-3, maximum inhibition) is 89%. Moreover, the cell viability reduction entry with BxPC-3 cells (BxPC-3, 5 µM compound in combination with olaparib, 144 h) is “≈ 40%”. The “Combination studies with olaparib” value in the data set with BxPC-3 cells (144 h) was “additive (a result ranging from 0.8 to 1.2 denotes an additive effect)”.
